How the values were obtained:
[1] = pH titration of sensor spots (pKa of the sensor); assay type: physicochemical; conditions: dye in ETEOS-GPTMS matrix, Table 2
Experimental: To perform titrations rapidly a set-up employing an epi-fluorescence microscopy equipped with a halogen light source and an Ocean Optics spectrometer for detection. The sensor spot was attached to a homemade holder, which kept the spot in place in a large chamber filled with water, where pH was externally monitored with a pH meter. Alternatively the sensor spot was affixed on the wall of a cuvette and the titration was performed in a Perkin Elmer LS50B, controlling the pH between measurements.
The performance of the sensors is shown as titration curves in FIG. 4. It is clear that a pH-dependent sensor action is achieved for these two sensor systems.

[2] = Leakage of dye from ETEOS-GPTMS matrix into surrounding PBS (physical stability); assay type: physicochemical; conditions: for Leaking: fluorescence Intensity (a.u.): PBS pH 7.0 surrounding coated glass slide
Experimental: The photostability was followed by constant illumination of the sensor spot with wavelength selected light from a xenon lamp. The physical stability was tested by immersing the sensor spot in low or high pH aqueous solution, and monitoring the fluorescence from the solution.
Table 2. Leaking of 5(6)-carboxyfluorescein (CF), DMQA-2, DAOTA-1, and 6-stearamido-fluorescein (AF18) from the ETEOS-GPTMS matrix given as fluorescence intensity measured from a PBS solution at pH 7 surrounding a glass slide coated with ETEOS-GPTMS-dye matrix using maximum sized slit widths at the emission and excitation sites of the spectrometer.
All the leakage data is compiled in table 2.

Compound	pKa [1]	Leakage from ETEOS-GPTMS matrix (in words) ([2]; PBS pH 7.0)	Leaking: fluorescence Intensity (a.u.) ([2]; leaking period 2 h, half the slit widths used for DMQA-2 and DAOTA-1)	Leaking: fluorescence Intensity (a.u.) ([2]; leaking period 4 d)
5(6)-carboxyfluorescein [CF]	6.5	extensive leakage	>>800 a.u.	–
CCCCCCCCCCCCCCCCCC(=O)Nc1ccc2c(c1)C1(OC2=O)c2ccc(O)cc2Oc2cc(O)ccc21 [AFC18, 6-stearamido-fluorescein]	6.5	–	–	100

From patent US10233328B2, “Sol-gel based matrix” (KØBENHAVNS UNIVERSITET, priority 2013, dated 2019)
